Measured values: patent publication EP1530968A1, “Galangin components for the maintenance of bone health and/or treatment, alleviaton and/or prevention of bone disorder” (N.V. Nutricia, priority 2003, dated 2005)
Marks after values point to notes of the source that are not given here.

Experiments:
[1] = tested on: KS483 (mouse pre-osteoblastic cell line); assay: Alkaline phosphatase (ALP) activity corrected for DNA in KS483 cells after 18 days exposure; assay type: cell-based; conditions: for ALP activity (mean ± SEM): 18 days, corrected for DNA, compared to control levels
Procedure: (§1) KS483 (mouse pre-osteoblastic cell line, Leids Universitair […] Centrum, Leiden, The Netherlands) was maintained in phenol red-free alpha-minimum essential medium (α-MEM) containing 10% non-charcoal-treated fetal bovine serum (FBS) and penicillin/streptomycin. Cells were seeded in 12-well plates at a density of 4.5x10^4 cells/well, and cultured in phenol red-free α-MEM supplemented with penicillin/streptomycin and 10% charcoal-treated FBS. Cells were exposed to vehicle (0.01 wt.% DMSO) , β-estradiol as a positive control (10^-8 M and 10^-9 M in 0.01 wt.% DMSO) or galangin (10^-5 M, 10^-6 M and 10^-7 M in 0.01 wt.% DMSO) for 18 days. From day 4 ascorbic acid (50μg/ml), and from day 11 β-glycerolphosphate (5mM) were added to the culture medium. Every 3-4 days the medium was changed. At day 18, cells were washed twice with ice-cold phosphate buffered saline (PBS), frozen immediately, and stored at -20°C for further use. The cells were lysed in 400μl SSC (15 mM sodium citrate and 150 mM sodium chloride) with 0.01% sodium dodecyl sulfate (SDS). Alkaline phosphatase (ALP) activity was determined kinetically in 25μl aliquots by colorimetric determination of the produced p-nitrophenol at 405 nm, using 6 mmol/L p-nitrophenylphosphate as a substrate at a 37°C and pH 10.5. To correct the ALP activity determination for cell quantity, the DNA content was measured in 100μl aliquots, using Hoechst 33258 and calibrated against a DNA standard (0.5-10μg/mL salmon sperm DNA). Fluorescence was measured at a wavelength of 355-460 nm. Calcium deposition (see Table 2) was determined using the cresolphthalein complexon method according to Henri et al, 1974 (Clinical Biochemistry. Principles and Techniques. Harper and Row, New York, USA. All chemicals were obtained from Sigma-Aldrich (Zwijndrecht, The Netherlands). TABLE 1

[2] = tested on: KS483 (mouse pre-osteoblastic cell line); assay: Calcium deposition in KS483 cells (cresolphthalein complexon method); assay type: cell-based; conditions: for Fold increase of calcium (mean ± SEM): 18 days, compared to control levels
Procedure: as §1

[3] = tested on: estrogen receptor; assay: ERE-Luciferase reporter assay in transiently transfected KS483 cells; assay type: cell-based, mouse; conditions: 48h
Procedure: (§2) Mouse pre-osteoblastic cell line KS483 was maintained in phenol red-free α-MEM containing 10% non-charcoal-treated FBS and penicillin/streptomycin. Cells were seeded in 24-well plates at a density of 1.6x10^4 cells/well, and cultured in phenol red-free α-MEM supplemented with penicillin/streptomycin and 10% charcoal-treated FBS. After 24 hours, cells were transiently transfected with 0.25 µg luciferase reporter (see below) using a lipid-based FuGENE 6 transfection reagent according to the manufacturer's recommendations (Roche, Almere, Netherlands). Cells were transfected with luciferase reporter, i.e. either estrogen-receptor-responsive element (ERE-Luciferase) or BMP-receptor-responsive element (BRE-Luciferas), hereinafter jointly referred to as luciferase reporter. Transfection efficiency was measured by co-transfection of 25 ng of SV40-Renilla control vector.. The transfection medium was changed after 18 hours into new α-MEM, containing penicillin/streptomycin and 10% charcoal-treated FBS. […] After 48h, cells were washed twice with PBS and frozen at -20°C. Luciferase activity was determined by measuring bioluminescence. Luciferase activity was expressed as fold induction ± SEM, which was corrected for transfection efficiency using sv40-renilla luciferase activity. The measured luciferase activity is indicative for the extent of stimulation of the estrogen receptor or BMP receptor by the test component. Subsequently the ratio ERE stimulation/BRE stimulation (ERE/BRE ratio) was determined, which is indicative for the estrogenic effects of the test component (Table 3).

[4] = tested on: BMP receptor; assay: BRE-Luciferase reporter assay in transiently transfected KS483 cells; assay type: cell-based, mouse; conditions: 48h
Procedure: as §2

[5] = tested on: estrogen receptor (ERE) and BMP receptor (BRE); assay: Ratio ERE stimulation/BRE stimulation (ERE/BRE ratio) in KS483 cells; assay type: cell-based, mouse; conditions: for ERE/BRE: ratio ERE stimulation/BRE stimulation
Procedure: as §2

[6] = tested on: SAMP6 mice; assay: Bone mineral density by DXA in senescence accelerated mice prone for osteoporosis (SAMP6); assay type: in vivo; conditions: for BMD-LS change ( BMDLS) after 10 weeks of treatment / Bone mineral density of the lumbar spine (BMD-LS): female SAMP6 mice, E subcutaneous implant; for BMD-LS change ( BMDLS) after 10 weeks of treatment: age 22 to 32 weeks
Description: (§3) Senescence accelerated mice prone for osteoporosis (SAMP6) and senescence accelerated resistant mice (SAMR) were obtained from Kyoto University, Kyoto, Japan. Mice were bred and kept under specific pathogen free conditions at the Center for small experimental animals in Wageningen. Procedures were approved by the external independent ethical committee for animal care and use (Zeist, The Netherlands). Female SAMP6 mice were randomized on the basis of body weight at the age 20 weeks and divided in 5 groups. […] The galangin was obtained from ICC, Sommerville, NJ, USA. The mice were treated from the age of 22 weeks to the age of 32 weeks. Animals were housed in pairs at 21°C with a 12-hour light/dark cycle in a room without male mice. Until the age of 22 weeks, animals were fed a complete rodent diet, free of flavonoids and isoflavones (RMH-B, Hope Farms, Woerden, The Netherlands). From 22 to 32 weeks of age, animals were fed diets composed according to the RDA of mice (Nutrient requirements of mice, National Academic press, Wahington, USA,1995) and demineralized water. Composition of all diets was identical, except for their galangin contents. All diets and water were supplied ad libitum. Food and water intake and body weight (BW) was registered weekly. Animals were checked daily for abnormal behavior and appearance. […] Implants were replaced after 6 weeks.
(§4) At the age of 22, 25, 28 and 32 weeks, bone mineral density (BMD) and body composition was determined with the aid of Dual energy X-ray absorptiometry (DXA) (Piximus, Lunar Corp, Madison, WI, USA) using the total body mode. Mice were anaesthetized with halothane and front and hind legs were extended. Bone mineral density of the lumbar spine (BMDLS) and the femur (BMDF) were determined within pre-defined regions of interest. Total body fat percentage was determined using the total body mode.

[7] = Body weight, fat percentage, food and water intake and uterus weight in SAMP6 mice; assay type: in vivo
Description: as §3, §4

[8] = age 22 weeks (before start of the intervention), galangin 0.4 mg per 100 g feed
[9] = age 25 weeks, treated from 22 weeks, galangin 0.4 mg per 100 g feed
[10] = age 28 weeks, treated from 22 weeks, galangin 0.4 mg per 100 g feed
[11] = age 32 weeks, treated from 22 weeks, galangin 0.4 mg per 100 g feed
[12] = from 25 weeks of age onwards, subcutaneous implant, intact SAMP6-mice
[13] = compared with control group, SAMP6 mice, galangin throughout the study, E from 25 weeks of age onwards

SMILES | ERE ([3]; 10^-5M) [fold induction] | ERE ([3]; 10^-6M) [fold induction] | ERE ([3]; 10^-7M) [fold induction] | BRE ([4]; 10^-5M) [fold induction] | BRE ([4]; 10^-6M) [fold induction] | BRE ([4]; 10^-7M) [fold induction] | ERE/BRE ([5]; 10^-5M) | ERE/BRE ([5]; 10^-6M) | ERE/BRE ([5]; 10^-7M) | BMD-LS change ( BMDLS) after 10 weeks of treatment ([6]; galangin 0.4 mg per 100 g feed) | Bone mineral density of the lumbar spine (BMD-LS) [6, 8] [g/cm^2] | Bone mineral density of the lumbar spine (BMD-LS) [6, 9] [g/cm^2] | Bone mineral density of the lumbar spine (BMD-LS) [6, 10] [g/cm^2] | Bone mineral density of the lumbar spine (BMD-LS) [6, 11] | further results
O=c1c(O)c(-c2ccccc2)oc2cc(O)cc(O)c12 [Gal, 3,5,7-trihydroxyflavone] | 3.8 | 1.0 | 0.9 | 2.0 | 0.9 | 0.9 | 2.0 | 1.2 | 1.1 | -14.1 ^a | 0.0691 | 0.0658 | 0.0621 | 0.0601 ^a g/cm^2 | ALP activity (mean ± SEM) ([1]; 10^-5M): 3.7 ± 0.152^a fold induction; ALP activity (mean ± SEM) ([1]; 10^-6M): 1.4 ± 0.055^a fold induction; ALP activity (mean ± SEM) ([1]; 10^-7M): 1.1 ± 0.071 fold induction; ALP activity ([1]; result in words): significantly increased; Fold increase of calcium (mean ± SEM) ([2]; 10^-5M): 2.3 ± 0.160^a fold induction; Fold increase of calcium (mean ± SEM) ([2]; 10^-6M): 1.2 ± 0.132 fold induction; Fold increase of calcium (mean ± SEM) ([2]; 10^-7M): 1.3 ± 0.038 fold induction; Calcium deposition ([2]; after treatment, result in words): significantly increased; ratio ERE/BRE relative to kaempherol and quercitin ([5]; galangin ratio as share of the ratio of kaempherol and quercitin): less than 50%; ERE/BRE ratio ([5]; result in words, galangin as compared to kaempherol and quercetin): low; loss of BMD-LS during the 10-week intervention period compared with controls ([6]; 0.04 mg galangin/100 g food (so in the source), SAMP6 mice): significantly lower; % inhibition compared to SAMPC ([6]; BMD-LS change after 10 weeks of treatment, galangin 0.4 mg per 100 g feed, SAMP6 mice): 40%; BMD-LS compared with controls ([6]; at 32 weeks, 0.4 mg galangin/100 g feed, SAMP6 mice): significantly higher; fat percentage ([7]; mouse, in vivo): No statistical differences; food and water intake ([7]; mouse, in vivo): No statistical differences
O=c1c(O)c(-c2ccc(O)cc2)oc2cc(O)cc(O)c12 [K, kaemferol] |  |  |  | 2.4 | 1.4 | 1.1 |  |  |  |  |  |  |  |  | 
O=c1c(O)c(-c2ccc(O)c(O)c2)oc2cc(O)cc(O)c12 [Q, quercetin] | 7.9 | 1.5 | 1.4 | 1.6 | 1.0 | 0.9 | 5.0 | 1.6 | 1.6 |  |  |  |  |  | 
C[C@]12CC[C@@H]3c4ccc(O)cc4CC[C@H]3[C@@H]1CC[C@@H]2O [β-E, 17 β-estradiol] |  |  |  |  |  |  |  |  |  | +23.4 ^a | 0.0700 | 0.0774 | 0.08315 | 0.0868 ^a g/cm^2 | ALP activity (mean ± SEM) ([1]; 10^-8M): 2.6 ± 0.129^a fold induction; ALP activity (mean ± SEM) ([1]; 10^-9M): 2.5 ± 0.184^a fold induction; ERE ([3]; 10^-8M): 9.0 fold induction; ERE ([3]; 10^-9M): 15.8 fold induction; ERE ([3]; 10^-10M): 20.2 fold induction; BRE ([4]; 10^-8M): 1.0 fold induction; BRE ([4]; 10^-9M): 1.6 fold induction; BRE ([4]; 10^-10M): 1.0 fold induction; ERE/BRE ([5]; 10^-8M): 8.6; ERE/BRE ([5]; 10^-10M): 19.4; BMD-F [6, 12]: significantly higher; BMD-LS [6, 12]: significantly higher; Uterus weight ([7]; at 32 weeks of age, compared with control group, SAMP6 mice): significantly higher; body weight [7, 13]: significantly lower; fat percentage [7, 13]: significantly lower; food and water intake [7, 13]: significantly lower
